Numbers after ± are expanded uncertainties.
Tests used:
[1] = refractive index (Na D-line) (dimensionless); conditions: 298.15 K; 101.33 kPa; Liquid; Standard Abbe refractometry
[2] = 298.15 K; 101.33 kPa; Liquid

Structure (SMILES)	refractive index [1]	mass density [2] [kg/m3]
CC(=O)N(C)C [N,N-dimethylethanamide]	1.4362 ± 0.0007	936.44 ± 0.13
CNC=O [N-methylformamide]	1.4303 ± 0.0007	998.97 ± 0.39
CC(C)=O [acetone]	1.3564 ± 0.0007	784.59 ± 0.24
C[S+](C)[O-] [dimethyl sulfoxide]	1.4771 ± 0.0007	1095.66 ± 0.15
CN(C)C=O [dimethylformamide]	1.4279 ± 0.0007	943.87 ± 0.26
NC=O [formamide]	1.4463 ± 0.0007	1129.11 ± 0.4
